# Source: patent US4994485A, “Thio compounds having fungicidal activity” (Duphar International Research B.V., priority 1986, dated 1991)
# Columns and labels:
# Leptosphaeria nodorum = assay: In vitro test on activity against Leptosphaeria nodorum; type: cell-based; conditions: Parastagonospora nodorum, read-out: growth inhibition of the fungus
# Protocol: (§1) The compound to be tested is processed in a culture medium consisting of 1% by weight of glucose, 0.2% by weight of a yeast extract (marmite), 0.5% by weight of a protein (pepton), 2.5% by weight of agar-agar, and 95.8% by weight of water, in petri dishes in concentrations of 3 and 10 ppm. The petri dishes are inoculated with the plant-pathogenic fungus Pyrenophora graminea and then kept at a temperature of 20° C. After 48 hours the growth-inhibiting activity of the compounds is determined visually. For comparison, the known substance (b) (see EXAMPLE XV) is also tested.
# Compounds according to the invention are tested on i Leptosphaeria nodorum in the same manner as described in EXAMPLE XIX.
# Pythium splendens = assay: In vitro test on activity against Pythium splendens; type: cell-based; conditions: Globisporangium splendens, read-out: growth inhibition of the fungus
# Fusarium culmorum [1] = assay: In vitro test on activity against Fusarium culmorum; type: cell-based; conditions: read-out: growth inhibition of the fungus
# Rhizoctonia solani = assay: In vitro test on activity against Rhizoctonia solani; type: cell-based; conditions: read-out: growth inhibition of the fungus
# Protocol: as §1, with “in petri dishes in concentrations of 3 and 10 ppm.” left out
# Compounds according to the invention are tested on Rhizoctonia solani in the same manner as described in EXAMPLE XIX.
# Pyrenophora graminea = assay: In vitro test on activity against Pyrenophora graminea; type: cell-based; conditions: 48 hours, 20° C., read-out: % growth inhibition of the fungus
# Protocol: In vitro test on activity against Pyrenophora graminea.
# as §1
# Pythium spp. = assay: Protection of seedlings against plant-pathogenic soil fungus by seed treatment (beet); type: in vivo; conditions: after 3 weeks, 18°-22° C., untreated 72
# Protocol: Test with respect to the protection of seedlings against a plant-pathogenicsoil fungus, namely Pythium spp., by means of a seed treatment.
# The compounds to be tested are processed to compositions by pulverising them and then mixing them intimately with kaolin in the desired concentration (see Table B). Beet seed is treated with these compositions in a quantity of 6 g of composition per kg of seed and then sown in trays with soil which was seriously infested with Pythium spp. After 3 weeks in a glass-house at 18°-22° C. and a relative humidity of 70-100%, the percentage of non-emerged and diseased seedlings (damping-off) is determined. The results are recorded in Table B. For comparison, the known substance 2-methylsulphinyl-4-methyl-5-nitrothiazole(a) is also tested.
# Fusarium culmorum [2] = assay: Protection of seedlings against plant pathogenic seed fungus by seed treatment (wheat); type: in vivo; conditions: wheat seed infested with Fusarium culmorum; 3 g composition (10% by weight in kaolin) per kg of seed; after three weeks, 8°-12° C.; untreated 67
# Protocol: Test with respect to the protection of seedlings against a plant pathogenic seed fungus, namely Fusarium culmorum, by means of a seed treatment.
# Wheat seed, infested with Fusarium culmorum, is treated with the substance to be tested in the form of a composi tion in a quantity of 3 g per kg of seed. The composition is obtained by pulverising the substance to be tested and then intimately mixing with kaolin in a concentration of 10% by weight. The seed thus treated is sown in a tray containing soil which is placed in a Wisconsin tank with a bottom temperature of 8°-12° C. After three weeks the number of emerged and healthy plants is determined. The emergence of healthy plants from untreated seed serves as control. For comparison, the known substances 2-methylsulphinyl-4-methyl-5-nitrothiazole (a), 2-methylsulphinyl-3-nitrothiophene (b) and 2-ethylsulphinyl-3-nitro-5-acetylthiophene (c) mentioned hereinbefore are also tested. In the examples, the numbers of the compounds refer to the specification.
# [3] = 600 mg of active substance per kg of seed
# [4] = 1200 mg of active substance per kg of seed
smiles,measurement,setting,value
"CSC(=C(C#N)c1ccc(Cl)cc1)[S+](C)[O-] (stereo not drawn) [(19), α-cyanoβ-methylsulphinyl-β-methylthio-4-chlorostyrene]",inhibition at 30 ppm,Leptosphaeria nodorum,≥ 85%
same,inhibition at 10 ppm,Pythium splendens,≥ 95%
same,inhibition at 30 ppm,Fusarium culmorum [1],≥ 75%
same,inhibition at 30 ppm,Rhizoctonia solani,≥ 75%
"CCCC[S+]([O-])c1sc(C(C)=O)c(Br)c1C#N (stereo not drawn) [(86), 2-n-butylsulphinyl-3-cyano-4-bromo-5-acetylthiophene]",inhibition at 10 ppm,Pyrenophora graminea,76%
same,inhibition at 30 ppm,Leptosphaeria nodorum,≥ 85%
same,inhibition at 10 ppm,Pythium splendens,≥ 95%
same,inhibition at 30 ppm,Fusarium culmorum [1],≥ 75%
"CC[S+]([O-])c1sc(C(C)=O)cc1C#N (stereo not drawn) [(9), 2-ethylsulphinyl-3-cyano-5-acetylthiophene]",percentage damping-off,Pythium spp.; [3],15%
same,percentage damping-off,Pythium spp.; [4],11%
same,inhibition at 30 ppm,Leptosphaeria nodorum,≥ 85%
same,inhibition at 10 ppm,Pythium splendens,≥ 95%
same,"Percentage of emerged, healthy plants",Fusarium culmorum [2],85%
"C[S+]([O-])c1sc(C(=O)c2ccccc2)c(Cl)c1C#N (stereo not drawn) [(31), 2-methylsulphinyl-3-cyano-4-chloro 5-benzoylthiophene]",inhibition at 10 ppm,Pyrenophora graminea,77%
same,inhibition at 30 ppm,Leptosphaeria nodorum,≥ 85%
same,inhibition at 10 ppm,Pythium splendens,≥ 95%
same,inhibition at 30 ppm,Fusarium culmorum [1],≥ 75%
CCCC[S+]([O-])c1sc(C#N)cc1C#N (stereo not drawn) [(80)],inhibition at 10 ppm,Pythium splendens,≥ 95%
same,inhibition at 30 ppm,Fusarium culmorum [1],≥ 75%
same,inhibition at 30 ppm,Rhizoctonia solani,≥ 75%
"C[S+]([O-])c1sc(C(=O)c2ccc(Cl)cc2)cc1C#N (stereo not drawn) [(52), 2-methylsulphinyl-3-cyano-5-(4-chlorobenzoyl)thiophene]",inhibition at 10 ppm,Pyrenophora graminea,71%
same,inhibition at 10 ppm,Pythium splendens,≥ 95%
same,inhibition at 30 ppm,Fusarium culmorum [1],≥ 75%
same,inhibition at 30 ppm,Rhizoctonia solani,≥ 75%
"C[S+]([O-])c1sc(C#N)cc1C#N (stereo not drawn) [(4), 2-methylsulphinyl-3,5-dicyanothiophene]",inhibition at 3 ppm,Pyrenophora graminea,66%
same,inhibition at 10 ppm,Pyrenophora graminea,84%
same,percentage damping-off,Pythium spp.; [3],10%
same,percentage damping-off,Pythium spp.; [4],9%
same,inhibition at 30 ppm,Leptosphaeria nodorum,≥ 85%
same,inhibition at 10 ppm,Pythium splendens,≥ 95%
same,inhibition at 30 ppm,Rhizoctonia solani,≥ 75%
same,"Percentage of emerged, healthy plants",Fusarium culmorum [2],90%
"CC[S+]([O-])c1sc(C#N)c(Oc2ccccc2)c1C#N (stereo not drawn) [(94), 2-ethylsulphinyl-3,5-dicyano-4-phenoxythiophene]",inhibition at 10 ppm,Pyrenophora graminea,70%
same,inhibition at 30 ppm,Leptosphaeria nodorum,≥ 85%
same,inhibition at 10 ppm,Pythium splendens,≥ 95%
"CCSC(=C(C#N)c1ccc(Cl)cc1)[S+]([O-])CC (stereo not drawn) [(53), α-cyano-β-ethylsulphinyl-β-ethylthio-4-chlorostyrene]",inhibition at 10 ppm,Pyrenophora graminea,83%
same,inhibition at 30 ppm,Leptosphaeria nodorum,≥ 85%
same,inhibition at 30 ppm,Fusarium culmorum [1],≥ 75%
"CCCCCCCC[S+]([O-])c1sc(C#N)c(Cl)c1C#N (stereo not drawn) [(36), 2-n-octylsulphinyl-3,5-dicyano-4-chlorothiophene]",inhibition at 30 ppm,Leptosphaeria nodorum,≥ 85%
same,inhibition at 10 ppm,Pythium splendens,≥ 95%
same,inhibition at 30 ppm,Fusarium culmorum [1],≥ 75%
same,inhibition at 30 ppm,Rhizoctonia solani,≥ 75%
"CC[S+]([O-])c1sc(C(=O)c2ccc(Cl)cc2)cc1C#N (stereo not drawn) [(47), 2-ethylsulphinyl-3-cyano-5-(4-chlorobenzoyl)thiophene]",inhibition at 10 ppm,Pyrenophora graminea,74%
same,inhibition at 30 ppm,Leptosphaeria nodorum,≥ 85%
same,inhibition at 10 ppm,Pythium splendens,≥ 95%
same,inhibition at 30 ppm,Fusarium culmorum [1],≥ 75%
"CC(=O)c1cc(C#N)c([S+](C)[O-])s1 (stereo not drawn) [(1), 2-methylsulphinyl-3-cyano-5-acetylthiophene]",percentage damping-off,Pythium spp.; [3],8%
same,percentage damping-off,Pythium spp.; [4],7%
same,inhibition at 10 ppm,Pythium splendens,≥ 95%
same,"Percentage of emerged, healthy plants",Fusarium culmorum [2],91%
"CC[S+]([O-])c1sc(C(C)=O)c(Cl)c1C#N (stereo not drawn) [(5), 2-ethylsulphinyl-3-cyano-4-chloro-5-acetylthiophene]",inhibition at 3 ppm,Pyrenophora graminea,54%
same,inhibition at 10 ppm,Pyrenophora graminea,89%
same,percentage damping-off,Pythium spp.; [3],21%
same,percentage damping-off,Pythium spp.; [4],17%
same,inhibition at 30 ppm,Leptosphaeria nodorum,≥ 85%
same,inhibition at 10 ppm,Pythium splendens,≥ 95%
same,inhibition at 30 ppm,Fusarium culmorum [1],≥ 75%
same,"Percentage of emerged, healthy plants",Fusarium culmorum [2],85%
"CSC(=C(C#N)c1ccc(Cl)c(Cl)c1)[S+](C)[O-] (stereo not drawn) [(15), α-cyano-β-merhylsulphinyl-β-methylthio-3,4-dichloro-styrene]",inhibition at 30 ppm,Leptosphaeria nodorum,≥ 85%
same,inhibition at 10 ppm,Pythium splendens,≥ 95%
same,inhibition at 30 ppm,Rhizoctonia solani,≥ 75%
"CCCCCC[S+]([O-])c1sc(C#N)c(Cl)c1C#N (stereo not drawn) [(34), 2-n-hexylsulphinyl-3,5-dicyano-4-chlorothiophene]",inhibition at 30 ppm,Leptosphaeria nodorum,≥ 85%
same,inhibition at 10 ppm,Pythium splendens,≥ 95%
same,inhibition at 30 ppm,Fusarium culmorum [1],≥ 75%
same,inhibition at 30 ppm,Rhizoctonia solani,≥ 75%
"CCOc1c(C#N)sc([S+]([O-])CC)c1C#N (stereo not drawn) [(14), 2-ethylsulphinyl-3,5-dicyano-4-ethoxythiophene]",percentage damping-off,Pythium spp.; [3],23%
same,percentage damping-off,Pythium spp.; [4],20%
same,inhibition at 30 ppm,Leptosphaeria nodorum,≥ 85%
same,inhibition at 10 ppm,Pythium splendens,≥ 95%
same,inhibition at 30 ppm,Fusarium culmorum [1],≥ 75%
same,"Percentage of emerged, healthy plants",Fusarium culmorum [2],87%
"C[S+]([O-])c1sc(C#N)c(Sc2ccccc2)c1C#N (stereo not drawn) [(85), 2-methylsulphinyl-3,5-dicyano-4-phenylthio-thiophene]",inhibition at 10 ppm,Pyrenophora graminea,73%
same,inhibition at 30 ppm,Leptosphaeria nodorum,≥ 85%
same,inhibition at 10 ppm,Pythium splendens,≥ 95%
same,inhibition at 30 ppm,Fusarium culmorum [1],≥ 75%
same,inhibition at 30 ppm,Rhizoctonia solani,≥ 75%
"CCCC[S+]([O-])c1sc(C#N)c(Br)c1C#N (stereo not drawn) [(79), 2-n-butylsulphinyl-3,5-dicyano-4-bromothiophene]",inhibition at 10 ppm,Pyrenophora graminea,80%
same,inhibition at 10 ppm,Pythium splendens,≥ 95%
same,inhibition at 30 ppm,Fusarium culmorum [1],≥ 75%
"CC[S+]([O-])c1sc(C(=O)c2ccc(Cl)cc2)c(Cl)c1C#N (stereo not drawn) [(72), 2-ethylsulphinyl-3-cyano-4-chloro-5-(4-chlorobenzoyl)thiophene]",inhibition at 10 ppm,Pyrenophora graminea,70%
same,inhibition at 30 ppm,Leptosphaeria nodorum,≥ 85%
same,inhibition at 10 ppm,Pythium splendens,≥ 95%
same,inhibition at 30 ppm,Fusarium culmorum [1],≥ 75%
"C[S+]([O-])c1sc(C(=O)c2ccccc2)cc1C#N (stereo not drawn) [(51), 2-methylsulphinyl-3-cyano-5-benzoylthiophene]",inhibition at 10 ppm,Pyrenophora graminea,71%
same,inhibition at 30 ppm,Leptosphaeria nodorum,≥ 85%
same,inhibition at 30 ppm,Fusarium culmorum [1],≥ 75%
"CC[S+]([O-])c1sc2cc([N+](=O)[O-])ccc2c1C#N (stereo not drawn) [(27), 2-ethylsulphinyl-3-cyano-6-nitro-benzothiophene]",percentage damping-off,Pythium spp.; [3],4%
same,percentage damping-off,Pythium spp.; [4],2%
same,inhibition at 30 ppm,Leptosphaeria nodorum,≥ 85%
same,inhibition at 10 ppm,Pythium splendens,≥ 95%
same,inhibition at 30 ppm,Fusarium culmorum [1],≥ 75%
same,inhibition at 30 ppm,Rhizoctonia solani,≥ 75%
same,"Percentage of emerged, healthy plants",Fusarium culmorum [2],96%
"N#Cc1sc([S+]([O-])c2ccccc2)c(C#N)c1Cl (stereo not drawn) [(82), 2 phenylsulphinyl-3,5-dicyano-4-chlorothiophene]",inhibition at 10 ppm,Pyrenophora graminea,80%
same,inhibition at 10 ppm,Pythium splendens,≥ 95%
same,inhibition at 30 ppm,Fusarium culmorum [1],≥ 75%
"COc1c(C#N)sc([S+](C)[O-])c1C#N (stereo not drawn) [(12), 2-methylsulphinyl-3,5-dicyano-4-methoxythiophene]",percentage damping-off,Pythium spp.; [3],0%
same,percentage damping-off,Pythium spp.; [4],0%
same,inhibition at 30 ppm,Leptosphaeria nodorum,≥ 85%
same,inhibition at 10 ppm,Pythium splendens,≥ 95%
same,inhibition at 30 ppm,Fusarium culmorum [1],≥ 75%
same,"Percentage of emerged, healthy plants",Fusarium culmorum [2],93%
"C[S+]([O-])c1sc(C#N)c(-c2ccc(Cl)cc2)c1C#N (stereo not drawn) [(35), 2-methylsulphinyl-3,5-dicyano-4-(4-chlorophenyl)thiophene]",inhibition at 10 ppm,Pyrenophora graminea,76%
same,inhibition at 30 ppm,Leptosphaeria nodorum,≥ 85%
same,inhibition at 10 ppm,Pythium splendens,≥ 95%
same,inhibition at 30 ppm,Fusarium culmorum [1],≥ 75%
"CCCC[S+]([O-])c1sc(C(C)=O)c(Cl)c1C#N (stereo not drawn) [(39), 2-n-butylsulphinyl 3-cyano-4-chloro-5-acetylthiophene]",inhibition at 10 ppm,Pyrenophora graminea,81%
same,inhibition at 10 ppm,Pythium splendens,≥ 95%
same,inhibition at 30 ppm,Fusarium culmorum [1],≥ 75%
same,inhibition at 30 ppm,Rhizoctonia solani,≥ 75%
"C[S+]([O-])c1sc(C(=O)c2ccc(Cl)cc2)c(Cl)c1C#N (stereo not drawn) [(42), 2-methylsulphinyl-3-cyano-4-chloro-5-(4-chlorobenzoyl) thiophene]",inhibition at 30 ppm,Leptosphaeria nodorum,≥ 85%
same,inhibition at 10 ppm,Pythium splendens,≥ 95%
same,inhibition at 30 ppm,Fusarium culmorum [1],≥ 75%
same,inhibition at 30 ppm,Rhizoctonia solani,≥ 75%
